Test results: publication PMC4146477, “Synthesis and Antimycobacterial and Photosynthesis-Inhibiting Evaluation of 2-[(E)-2-Substituted-ethenyl]-1,3-benzoxazoles” (The Scientific World Journal, 2014)
≈ marks a conversion by molar mass, not a printed value. Where “and” joins values, the source holds several entries; their conditions need not be identical. Equal entries are not always repeated. Where two headings read alike, the source gives them in different places.

Assays:
[1] = test system: photosynthetic electron transport (PET) in spinach chloroplasts; assay: Inhibition of photosynthetic electron transport (PET) in spinach chloroplasts (DCPIP photoreduction); format: biochemical, Spinacia oleracea L.; settings: DCPIP as electron acceptor
Method: Chloroplasts were prepared from spinach (Spinacia oleracea L.) according to Masarovicova and Kralova. The inhibition of photosynthetic electron transport (PET) in spinach chloroplasts was determined spectrophotometrically (Genesys 6, Thermo Scientific), using an artificial electron acceptor 2,6-dichlorophenol-indophenol (DCPIP) according to Kralova et al., and the rate of photosynthetic electron transport was monitored as a photoreduction of DCPIP. The measurements were carried out in phosphate buffer (0.02 mol/L, pH 7.2) containing sucrose (0.4 mol/L), MgCl2 (0.005 mol/L), and NaCl (0.015 mol/L). The chlorophyll content was 30 mg/L in these experiments and the samples were irradiated (~100 W/m^2 with 10 cm distance) with a halogen lamp (250 W) using a 4 cm water filter to prevent warming of the samples (suspension temperature 22°C). The studied compounds were dissolved in DMSO due to their limited water solubility. […] The inhibitory efficiency of the studied compounds was expressed by IC50 values, that is, by molar concentration of the compounds causing 50% decrease in the oxygen evolution rate relative to the untreated control.

M. avium My 330/88 = assay: In vitro antimycobacterial evaluation (MIC, Sula semisynthetic medium); format: cell-based; settings: Mycobacterium avium
[2] = Lipophilicity determination by RP-HPLC (capacity factor k / log k); format: physicochemical; settings: C18, MeOH 70% / H2O 30%, isocratic
Text: A Waters Alliance 2695 XE HPLC separation module and a Waters Photodiode Array Detector 2996 (Waters Corp., Milford, MA, USA) were used. A Symmetry C18 5 μm, 4.6 × 250 mm, Part No. WAT054275 (Waters Corp., Milford, MA, USA) chromatographic column was used. The HPLC separation process was monitored by Empower 2 Chromatography Data Software, Waters 2009 (Waters Corp., Milford, MA, USA). A mixture of MeOH p.a. (70%) and H2O-HPLC - Mili-Q Grade (30%) was used as a mobile phase. The total flow of the column was 1.0 mL/min, injection volume, 30 μL, column temperature, 45°C, and sample temperature, 10°C. The detection wavelength of 210 nm was chosen. The KI methanolic solution was used for the dead time (t D) determination. Retention times (t R) were measured in minutes. The capacity factors k were calculated using the Empower 2 Chromatography Data Software according to formula k = (t R − t D)/t D, where t R is the retention time of the solute, whereas t D denotes the dead time obtained using an unretained analyte.
Lipophilicity is a property that has a major effect on ADME/Tox properties as well as pharmacological activity, because drugs mostly cross biological membranes through passive transport, which strongly depends on their lipophilicity. Lipophilicity has been studied and applied as an important drug property for decades. This parameter was measured by means of RP-HPLC and expressed as logarithm of capacity factor k. The procedure was performed under isocratic conditions with methanol as an organic modifier in the mobile phase using an end-capped nonpolar C18 stationary RP column. The hydrophobic contributions (expressed as distributive parameters π) of individual substituents in C(2) position of 2-[(E)-2-substituted-ethenyl]-1,3-benzoxazole scaffold were predicted using ACD/Percepta ver. 2012 (Advanced Chemistry Development, Inc., Toronto, ON, Canada). The results are shown in Table 1 and the match of the experimental determined lipophilicity log k with calculated distributive parameters π is illustrated in Figure 1.

[3] = test system: Mycobacterium tuberculosis My 331/88; assay: In vitro antimycobacterial evaluation (MIC, Sula semisynthetic medium); format: cell-based
M. kansasii My 235/80 = assay: as above; format: cell-based; settings: Mycobacterium kansasii
[4] = test system: aromatic amino acids in photosynthetic proteins of spinach chloroplasts; assay: Aromatic amino acids (AAA) fluorescence in spinach chloroplasts; format: biochemical, Spinacia oleracea L.; settings: increasing concentration (0, 3.2, 6.4, 9.6 μmol/L), excitation 275 nm
Method: The fluorescence emission spectra of aromatic amino acids (AAA) in spinach chloroplasts were recorded on fluorescence spectrophotometer F-2000 (Hitachi, Tokyo, Japan) using excitation wavelength λ ex = 275 nm, excitation slit 20 nm, and emission slit 10 nm. The phosphate buffer used for dilution of the chloroplast suspension was the same as described above. Due to low aqueous solubility the compounds were added to the chloroplast suspension in DMSO solution. The DMSO concentration in all samples was the same as in the control (10%). The chlorophyll concentration in the chloroplast suspension was 10 mg/L. The interaction of studied compounds with aromatic amino acids (AAA) occurring in photosynthetic proteins of spinach chloroplasts situated in PS II was monitored by the quenching of AAA fluorescence at 334 nm.

[5] = MY330/88, 336 h, 14d incubation
[6] = MY330/88, 504 h, 21d incubation
[7] = MY331/88, 336 h, 14d incubation
[8] = MY331/88, 504 h, 21d incubation
[9] = MY235/80, 336 h, 14d incubation, read-out: MIC MK
[10] = MY235/80, 504 h, 21d incubation, read-out: MIC MK
[11] = MY235/80, incubation time not stated, read-out: inhibitory activity (MIC) against M. kansasii

| SMILES | IC50 [1] [µM] | MIC (M. avium My 330/88; [5]) [µM] | MIC (M. avium My 330/88; [6]) [µM] | log k [2] | MIC [3, 7] [µM] | MIC [3, 8] [µM] | MIC (M. kansasii My 235/80; [9]) [µM] | MIC (M. kansasii My 235/80; [10]) [µM] | AAA fluorescence at 334 nm [4] | MIC (M. kansasii My 235/80; [11]) [µM] |
| --- | --- | --- | --- | --- | --- | --- | --- | --- | --- | --- |
| C(=C\c1nc2ccccc2o1)/c1ccccc1 [Compound 1, 2-[(E)-2-Phenylethenyl]-1,3-benzoxazole] | 149 | 62.5 (≈ 13.8 µg/mL) | 125 (≈ 27.7 µg/mL) | 0.9409 | 125 (≈ 27.7 µg/mL) | 125 (≈ 27.7 µg/mL) | 125 (≈ 27.7 µg/mL) | 125 (≈ 27.7 µg/mL) | – | – |
| COc1ccccc1/C=C/c1nc2ccccc2o1 [Compound 2, 2-[(E)-2-(2-Methoxyphenyl)ethenyl]-1,3-benzoxazole] | 76.3 | 62.5 (≈ 15.7 µg/mL) | 125 (≈ 31.4 µg/mL) | 0.9325 | 125 (≈ 31.4 µg/mL) | 125 (≈ 31.4 µg/mL) | 125 (≈ 31.4 µg/mL) | 125 (≈ 31.4 µg/mL) | – | – |
| COc1ccc(/C=C/c2nc3ccccc3o2)cc1 [Compound 3, 2-[(E)-2-(4-Methoxyphenyl)ethenyl]-1,3-benzoxazole] | 216 | 32 (≈ 8.04 µg/mL) | 62.5 (≈ 15.7 µg/mL) | 0.9382 | 62.5 (≈ 15.7 µg/mL) | 62.5 (≈ 15.7 µg/mL) | 62.5 (≈ 15.7 µg/mL) | 125 (≈ 31.4 µg/mL) | strong decline | – |
| CSc1ccc(/C=C/c2nc3ccccc3o2)cc1 [Compound 4, 2-{(E)-2-[4-(Methylsulfanyl)phenyl]ethenyl}-1,3-benzoxazole] | 199 | 62.5 (≈ 16.7 µg/mL) | 62.5 (≈ 16.7 µg/mL) | 1.1225 | 62.5 (≈ 16.7 µg/mL) | 125 (≈ 33.4 µg/mL) | 62.5 (≈ 16.7 µg/mL) | 62.5 (≈ 16.7 µg/mL) | – | 62.5 (≈ 16.7 µg/mL) |
| Cc1ccc(/C=C/c2nc3ccccc3o2)cc1 [Compound 5, 2-[(E)-2-(4-Methylphenyl)ethenyl]-1,3-benzoxazole] | 102 | 125 (≈ 29.4 µg/mL) | 250 (≈ 58.8 µg/mL) | 1.1226 | 250 (≈ 58.8 µg/mL) | 250 (≈ 58.8 µg/mL) | 250 (≈ 58.8 µg/mL) | 500 (≈ 118 µg/mL) | – | – |
| Clc1ccc(/C=C/c2nc3ccccc3o2)cc1 [Compound 6, 2-[(E)-2-(4-Chlorophenyl)ethenyl]-1,3-benzoxazole] | 517 | 250 (≈ 63.9 µg/mL) | 500 (≈ 128 µg/mL) | 1.1226 and 1.1271 | 250 (≈ 63.9 µg/mL) | 250 (≈ 63.9 µg/mL) | 500 (≈ 128 µg/mL) | 500 (≈ 128 µg/mL) | – | 500 (≈ 128 µg/mL) |
| FC(F)(F)c1ccc(/C=C/c2nc3ccccc3o2)cc1 [Compound 7, 2-{(E)-2-[4-(Trifluoromethyl)phenyl]ethenyl}-1,3-benzoxazole] | – | 125 (≈ 36.2 µg/mL) | 250 (≈ 72.3 µg/mL) | 1.1317 | 125 (≈ 36.2 µg/mL) | 250 (≈ 72.3 µg/mL) | 250 (≈ 72.3 µg/mL) | 500 (≈ 145 µg/mL) | – | – |
